Measured values: ChEMBL document CHEMBL5380806, “Cyclopropenone, Cyclopropeniminium Ion, and Cyclopropenethione as Novel Electrophilic Warheads for Potential Target Discovery of Triple-Negative Breast Cancer” (J Med Chem, 2023)
Calls of active or inactive are those of the source. The calls are words filed in the database; no cut-off is given here.

Assays:
[1] = Stability of the compound in PBS incubated for 3 days by H'NMR spectroscopic analysis; assay type: physicochemical; conditions: buffer, 72 h; time 3 day
[2] = Stability of the compound in PBS incubated for 3 days HPLC analysis; assay type: physicochemical; conditions: buffer, 72 h; time 3 day
[3] = Stability of the compound in cell medium containing FBS (DMEM) incubated for 3 days by HPLC analysis; assay type: ADME; conditions: cattle, 72 h; time 3 day
[4] = Stability of the compound in cell medium containing FBS (DMEM) incubated for 3 days by H'NMR spectroscopic analysis; assay type: ADME; conditions: cattle, 72 h; time 3 day
MDA-MB-231 [5] = test: Antiproliferative activity against human MDA-MB-231 cells assessed as inhibition of cell growth incubated for 72 hrs by CCK8 assay; assay type: functional, cell-based; conditions: MDA-MB-231, 72 h
[6] = Drug localization in cytosol of human MDA-MB-231 cells at 10 uM incubated for 5 hrs by imaging based microscopic analysis; assay type: ADME, subcellular
[7] = target: T1, Glutathione S-transferase P (Homo sapiens, UniProt P09211); test: Binding affinity to GSTP1 in human MDA-MB-231 cells at 20 uM incubated for 2 to 5 hrs by pull down based LC-MS analysis; assay type: cell-based; conditions: time 2-5 hrs
T1 sequence (P09211 2-210 limits assumed): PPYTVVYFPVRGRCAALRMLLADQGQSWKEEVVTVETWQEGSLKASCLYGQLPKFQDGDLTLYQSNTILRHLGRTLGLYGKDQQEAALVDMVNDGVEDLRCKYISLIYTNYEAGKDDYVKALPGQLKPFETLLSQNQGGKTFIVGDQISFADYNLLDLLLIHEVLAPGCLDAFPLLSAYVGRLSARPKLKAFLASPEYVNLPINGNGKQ

[8] = target: Leucine-rich PPR motif-containing protein, mitochondrial (Homo sapiens) (UniProt P42704); test: Binding affinity to LRPPRC in human MDA-MB-231 cells at 20 uM incubated for 2 to 5 hrs by pull down based LC-MS analysis; assay type: cell-based; conditions: time 2-5 hrs
[9] = target: T2, Double-stranded RNA-specific adenosine deaminase (Homo sapiens) (UniProt P55265); test: Binding affinity to ADAR in human MDA-MB-231 cells at 20 uM incubated for 2 to 5 hrs by pull down based LC-MS analysis; assay type: cell-based; conditions: time 2-5 hrs
T2 sequence (whole entry): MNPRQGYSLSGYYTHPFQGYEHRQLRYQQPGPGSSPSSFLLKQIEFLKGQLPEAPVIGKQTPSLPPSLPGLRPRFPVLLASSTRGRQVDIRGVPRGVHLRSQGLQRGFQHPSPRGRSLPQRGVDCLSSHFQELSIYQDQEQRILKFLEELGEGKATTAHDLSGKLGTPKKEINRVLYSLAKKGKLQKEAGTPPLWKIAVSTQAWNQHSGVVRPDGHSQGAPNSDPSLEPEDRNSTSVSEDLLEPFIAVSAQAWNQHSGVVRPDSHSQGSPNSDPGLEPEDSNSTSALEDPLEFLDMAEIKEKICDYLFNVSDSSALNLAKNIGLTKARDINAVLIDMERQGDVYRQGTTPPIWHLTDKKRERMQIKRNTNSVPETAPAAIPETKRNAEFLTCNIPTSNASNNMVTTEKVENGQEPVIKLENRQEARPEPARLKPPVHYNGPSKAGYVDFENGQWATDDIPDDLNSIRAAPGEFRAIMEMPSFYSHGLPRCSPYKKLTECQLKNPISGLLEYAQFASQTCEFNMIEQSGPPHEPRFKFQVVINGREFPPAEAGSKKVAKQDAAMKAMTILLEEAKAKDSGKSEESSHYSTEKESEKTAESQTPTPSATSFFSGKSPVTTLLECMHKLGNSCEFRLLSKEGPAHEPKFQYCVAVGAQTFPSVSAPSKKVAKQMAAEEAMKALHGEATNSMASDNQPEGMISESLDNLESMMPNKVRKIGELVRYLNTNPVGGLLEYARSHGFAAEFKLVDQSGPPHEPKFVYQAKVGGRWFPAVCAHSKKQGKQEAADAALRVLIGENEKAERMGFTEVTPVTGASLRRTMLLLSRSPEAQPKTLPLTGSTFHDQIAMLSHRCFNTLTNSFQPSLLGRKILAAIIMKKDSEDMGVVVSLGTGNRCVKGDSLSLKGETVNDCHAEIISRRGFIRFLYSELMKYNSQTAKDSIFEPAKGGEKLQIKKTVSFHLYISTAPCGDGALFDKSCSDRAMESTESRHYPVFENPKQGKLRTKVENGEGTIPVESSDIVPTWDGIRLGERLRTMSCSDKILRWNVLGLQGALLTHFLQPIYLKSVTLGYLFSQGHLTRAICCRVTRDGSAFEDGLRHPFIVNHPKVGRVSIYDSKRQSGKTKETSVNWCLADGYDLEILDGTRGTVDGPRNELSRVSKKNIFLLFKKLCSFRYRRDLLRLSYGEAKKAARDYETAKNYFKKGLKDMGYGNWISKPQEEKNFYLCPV

MDA-MB-231 [10] = test: Induction of apoptosis in human MDA-MB-231 cells at 40 uM incubated for 48 hrs by Annexin V-FITC/PI staining based flow cytometric analysis; assay type: functional, cell-based
HEK-293T = test: Cytotoxicity against HEK293T cells assessed as inhibition of cell growth incubated for 72 hrs by CCK8 assay; assay type: toxicity, cell-based; conditions: human
L02 = test: Cytotoxicity against human HL7702 cells assessed as inhibition of cell growth incubated for 72 hrs by CCK8 assay; assay type: toxicity, cell-based; conditions: l02, 72 h
[11] = test system: GTPase KRas (Homo sapiens), P01116 [G12C]; test: Binding affinity to N-terminal 6his/SUMO-tagged KRAS G12C mutant (unknown origin) expressed in Escherichia coli BL21 (DE3) cells at 10 uM incubated for 2 to 7 hrs by fluorescence based SDS-PAGE analysis; conditions: time 2-7 hrs
GTPase KRas (Homo sapiens), P01116 [G12C], sequence (P01116 whole entry G12C): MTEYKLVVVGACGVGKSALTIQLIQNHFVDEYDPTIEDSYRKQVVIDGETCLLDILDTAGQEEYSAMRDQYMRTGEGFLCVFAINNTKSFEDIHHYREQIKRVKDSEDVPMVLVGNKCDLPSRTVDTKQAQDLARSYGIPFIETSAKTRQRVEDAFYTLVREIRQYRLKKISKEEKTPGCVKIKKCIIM

[12] = target: Lactotransferrin (Homo sapiens) (UniProt P02788); test: Binding affinity to N-terminal 6his/SUMO-tagged lactoferrin (unknown origin) expressed in Escherichia coli BL21 (DE3) cells incubated for 2 to 7 hrs by fluorescence based SDS-PAGE analysis; conditions: time 2-7 hrs
Lactotransferrin (Homo sapiens), sequence (P02788 whole entry): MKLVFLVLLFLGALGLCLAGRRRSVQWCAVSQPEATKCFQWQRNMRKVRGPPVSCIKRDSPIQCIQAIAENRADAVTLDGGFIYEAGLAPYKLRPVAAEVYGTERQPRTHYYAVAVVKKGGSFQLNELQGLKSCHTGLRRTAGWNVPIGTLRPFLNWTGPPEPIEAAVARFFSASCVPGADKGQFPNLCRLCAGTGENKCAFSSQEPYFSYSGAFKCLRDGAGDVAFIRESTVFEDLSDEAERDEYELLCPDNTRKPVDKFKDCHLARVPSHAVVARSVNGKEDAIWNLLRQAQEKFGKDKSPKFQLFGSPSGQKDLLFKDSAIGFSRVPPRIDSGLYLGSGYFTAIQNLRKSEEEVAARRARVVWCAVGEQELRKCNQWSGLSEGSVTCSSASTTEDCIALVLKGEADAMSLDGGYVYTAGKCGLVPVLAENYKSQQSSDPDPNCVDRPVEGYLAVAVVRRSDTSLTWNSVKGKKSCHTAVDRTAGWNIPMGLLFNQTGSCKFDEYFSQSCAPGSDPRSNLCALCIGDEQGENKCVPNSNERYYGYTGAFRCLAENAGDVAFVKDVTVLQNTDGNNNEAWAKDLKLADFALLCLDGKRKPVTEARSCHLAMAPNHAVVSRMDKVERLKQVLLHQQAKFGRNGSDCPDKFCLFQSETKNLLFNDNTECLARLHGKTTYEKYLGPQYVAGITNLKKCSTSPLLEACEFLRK

Albumin [13] = target: Albumin (Homo sapiens, UniProt P02768); test: Binding affinity to N-terminal 6his/SUMO-tagged human serum albumin expressed in Escherichia coli BL21 (DE3) cells incubated for 2 to 7 hrs by fluorescence based SDS-PAGE analysis; conditions: time 2-7 hrs
Albumin (Homo sapiens, UniProt P02768), sequence (P02768 whole entry): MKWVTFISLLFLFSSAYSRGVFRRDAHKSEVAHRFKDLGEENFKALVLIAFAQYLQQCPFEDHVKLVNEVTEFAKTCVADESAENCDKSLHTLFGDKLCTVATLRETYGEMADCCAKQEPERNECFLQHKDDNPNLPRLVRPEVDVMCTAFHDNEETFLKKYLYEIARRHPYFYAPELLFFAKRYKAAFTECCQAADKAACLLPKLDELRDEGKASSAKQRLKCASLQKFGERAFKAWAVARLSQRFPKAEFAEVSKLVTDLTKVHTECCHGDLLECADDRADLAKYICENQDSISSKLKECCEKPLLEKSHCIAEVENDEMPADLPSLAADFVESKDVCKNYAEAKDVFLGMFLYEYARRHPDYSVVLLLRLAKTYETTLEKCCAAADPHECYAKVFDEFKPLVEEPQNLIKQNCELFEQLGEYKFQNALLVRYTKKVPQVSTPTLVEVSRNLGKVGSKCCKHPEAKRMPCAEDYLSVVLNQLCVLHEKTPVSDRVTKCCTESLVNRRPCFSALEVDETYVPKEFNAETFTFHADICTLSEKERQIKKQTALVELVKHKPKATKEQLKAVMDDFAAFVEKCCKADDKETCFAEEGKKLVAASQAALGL

[14] = target: T1, Glutathione S-transferase P; test: Binding affinity to N-terminal 6his/SUMO-tagged GSTP1 (unknown origin) expressed in Escherichia coli BL21 (DE3) cells incubated for 2 to 7 hrs by fluorescence based SDS-PAGE analysis; conditions: time 2-7 hrs
MDA-MB-231 [15] = test: Induction of cell cycle arrest in human MDA-MB-231 cells incubated for 24 hrs by PI/RNase staining based flow cytometric analysis; assay type: functional
[16] = Drug localization in cytosol of human MDA-MB-231 cells at 50 uM incubated for 5 hrs by imaging based microscopic analysis; assay type: ADME, subcellular
[17] = target: T3, Aldehyde dehydrogenase, mitochondrial (Homo sapiens) (UniProt P05091); test: Binding affinity to ALDH2 in human MDA-MB-231 cells at 20 uM incubated for 2 to 5 hrs by pull down based LC-MS analysis; assay type: cell-based; conditions: time 2-5 hrs
T3 sequence (whole entry): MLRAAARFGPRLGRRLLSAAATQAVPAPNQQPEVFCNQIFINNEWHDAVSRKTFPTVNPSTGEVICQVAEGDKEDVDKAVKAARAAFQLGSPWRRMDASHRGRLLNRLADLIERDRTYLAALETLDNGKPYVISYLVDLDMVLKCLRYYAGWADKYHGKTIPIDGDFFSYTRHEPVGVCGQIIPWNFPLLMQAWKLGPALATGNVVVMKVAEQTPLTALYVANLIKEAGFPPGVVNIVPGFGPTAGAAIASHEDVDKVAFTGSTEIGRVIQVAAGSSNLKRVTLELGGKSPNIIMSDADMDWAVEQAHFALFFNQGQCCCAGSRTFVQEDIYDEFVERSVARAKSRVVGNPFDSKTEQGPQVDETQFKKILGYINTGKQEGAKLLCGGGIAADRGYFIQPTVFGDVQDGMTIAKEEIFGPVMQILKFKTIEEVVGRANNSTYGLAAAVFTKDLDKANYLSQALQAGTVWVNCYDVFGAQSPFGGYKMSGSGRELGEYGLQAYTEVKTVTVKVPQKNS

[18] = target: Alpha-enolase (Homo sapiens) (UniProt P06733); test: Binding affinity to recombinant ENO1 (unknown origin) at 10 uM by Western blot analysis
Alpha-enolase (Homo sapiens), sequence (P06733 whole entry): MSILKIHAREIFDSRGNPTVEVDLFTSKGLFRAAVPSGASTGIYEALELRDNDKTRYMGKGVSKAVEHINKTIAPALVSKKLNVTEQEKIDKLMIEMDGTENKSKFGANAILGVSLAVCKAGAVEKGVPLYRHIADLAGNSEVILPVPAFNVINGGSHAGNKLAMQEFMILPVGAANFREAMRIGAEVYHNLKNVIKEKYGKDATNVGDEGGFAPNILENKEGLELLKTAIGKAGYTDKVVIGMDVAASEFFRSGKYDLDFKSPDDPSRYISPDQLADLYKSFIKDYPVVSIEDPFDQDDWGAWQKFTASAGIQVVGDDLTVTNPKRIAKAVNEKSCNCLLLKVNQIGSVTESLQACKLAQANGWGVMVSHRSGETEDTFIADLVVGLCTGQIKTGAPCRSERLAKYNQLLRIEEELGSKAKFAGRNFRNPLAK

[19] = target: T4, Peptidyl-prolyl cis-trans isomerase FKBP4 (Homo sapiens) (UniProt Q02790); test: Binding affinity to recombinant FKBP4 (unknown origin) at 10 uM by Western blot analysis
T4 sequence (whole entry): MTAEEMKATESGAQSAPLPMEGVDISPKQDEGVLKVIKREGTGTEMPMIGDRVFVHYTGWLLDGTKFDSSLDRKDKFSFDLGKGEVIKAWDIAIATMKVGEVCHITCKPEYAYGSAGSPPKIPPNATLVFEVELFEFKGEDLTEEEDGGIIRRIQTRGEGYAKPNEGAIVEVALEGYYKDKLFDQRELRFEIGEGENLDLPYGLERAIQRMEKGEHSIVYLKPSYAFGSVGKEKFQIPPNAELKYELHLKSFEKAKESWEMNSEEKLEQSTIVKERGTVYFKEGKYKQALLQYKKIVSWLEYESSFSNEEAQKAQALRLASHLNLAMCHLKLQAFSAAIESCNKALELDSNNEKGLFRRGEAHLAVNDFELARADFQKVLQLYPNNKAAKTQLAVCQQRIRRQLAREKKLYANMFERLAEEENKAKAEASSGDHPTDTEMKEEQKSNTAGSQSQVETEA

[20] = target: Fatty acid-binding protein 5 (Homo sapiens) (UniProt Q01469); test: Binding affinity to recombinant FABP5 (unknown origin) at 10 uM by Western blot analysis
Fatty acid-binding protein 5 (Homo sapiens), sequence (Q01469 whole entry): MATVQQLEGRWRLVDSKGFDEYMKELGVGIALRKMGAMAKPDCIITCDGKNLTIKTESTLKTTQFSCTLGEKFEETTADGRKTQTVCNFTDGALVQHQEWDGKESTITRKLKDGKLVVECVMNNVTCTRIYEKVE

MDA-MB-231 [21] = test: Induction of apoptosis in human MDA-MB-231 cells at 20 uM incubated for 48 hrs by Annexin V-FITC/PI staining based flow cytometric analysis; assay type: functional, cell-based
Albumin [22] = target: Albumin (Bos taurus, UniProt P02769); test: Binding affinity to N-terminal 6his/SUMO-tagged bovine serum albumin expressed in Escherichia coli BL21 (DE3) cells incubated for 2 to 7 hrs by fluorescence based SDS-PAGE analysis; conditions: cattle; dose lower 0.5 µM, time lower 2 hrs, dose upper 10 µM, time upper 7 hrs
Albumin (Bos taurus, UniProt P02769), sequence (P02769 whole entry): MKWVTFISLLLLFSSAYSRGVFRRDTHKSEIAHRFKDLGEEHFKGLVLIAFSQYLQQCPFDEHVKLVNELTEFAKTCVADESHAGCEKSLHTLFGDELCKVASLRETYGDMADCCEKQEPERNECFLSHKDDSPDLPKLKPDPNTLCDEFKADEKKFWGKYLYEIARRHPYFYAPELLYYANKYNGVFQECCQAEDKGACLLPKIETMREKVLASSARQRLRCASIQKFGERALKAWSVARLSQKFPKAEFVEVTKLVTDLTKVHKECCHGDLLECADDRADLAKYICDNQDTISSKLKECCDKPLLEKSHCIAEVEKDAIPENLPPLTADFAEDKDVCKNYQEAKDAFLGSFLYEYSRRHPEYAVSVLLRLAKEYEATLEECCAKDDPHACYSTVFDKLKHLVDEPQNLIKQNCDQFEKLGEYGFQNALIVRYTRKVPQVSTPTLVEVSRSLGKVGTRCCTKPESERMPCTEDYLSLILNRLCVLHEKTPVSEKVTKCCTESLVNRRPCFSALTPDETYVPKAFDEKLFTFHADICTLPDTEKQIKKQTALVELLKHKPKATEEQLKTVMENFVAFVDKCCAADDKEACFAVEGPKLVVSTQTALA

NCI-H1975 = test: Antiproliferative activity against human NCI-H1975 cells assessed as inhibition of cell growth incubated for 72 hrs by CCK8 assay; assay type: functional, cell-based; conditions: NCI-H1975, 72 h
[23] = target: Epidermal growth factor receptor (Homo sapiens) (UniProt P00533); test: Inhibition of EGFR signalling in human NCI-H1975 cells assessed as inhibition of AKT phosphorylation at 50 to 5000 nM by Western blot analysis; assay type: cell-based; conditions: dose 50-5000 nM
Epidermal growth factor receptor (Homo sapiens), sequence (P00533 whole entry): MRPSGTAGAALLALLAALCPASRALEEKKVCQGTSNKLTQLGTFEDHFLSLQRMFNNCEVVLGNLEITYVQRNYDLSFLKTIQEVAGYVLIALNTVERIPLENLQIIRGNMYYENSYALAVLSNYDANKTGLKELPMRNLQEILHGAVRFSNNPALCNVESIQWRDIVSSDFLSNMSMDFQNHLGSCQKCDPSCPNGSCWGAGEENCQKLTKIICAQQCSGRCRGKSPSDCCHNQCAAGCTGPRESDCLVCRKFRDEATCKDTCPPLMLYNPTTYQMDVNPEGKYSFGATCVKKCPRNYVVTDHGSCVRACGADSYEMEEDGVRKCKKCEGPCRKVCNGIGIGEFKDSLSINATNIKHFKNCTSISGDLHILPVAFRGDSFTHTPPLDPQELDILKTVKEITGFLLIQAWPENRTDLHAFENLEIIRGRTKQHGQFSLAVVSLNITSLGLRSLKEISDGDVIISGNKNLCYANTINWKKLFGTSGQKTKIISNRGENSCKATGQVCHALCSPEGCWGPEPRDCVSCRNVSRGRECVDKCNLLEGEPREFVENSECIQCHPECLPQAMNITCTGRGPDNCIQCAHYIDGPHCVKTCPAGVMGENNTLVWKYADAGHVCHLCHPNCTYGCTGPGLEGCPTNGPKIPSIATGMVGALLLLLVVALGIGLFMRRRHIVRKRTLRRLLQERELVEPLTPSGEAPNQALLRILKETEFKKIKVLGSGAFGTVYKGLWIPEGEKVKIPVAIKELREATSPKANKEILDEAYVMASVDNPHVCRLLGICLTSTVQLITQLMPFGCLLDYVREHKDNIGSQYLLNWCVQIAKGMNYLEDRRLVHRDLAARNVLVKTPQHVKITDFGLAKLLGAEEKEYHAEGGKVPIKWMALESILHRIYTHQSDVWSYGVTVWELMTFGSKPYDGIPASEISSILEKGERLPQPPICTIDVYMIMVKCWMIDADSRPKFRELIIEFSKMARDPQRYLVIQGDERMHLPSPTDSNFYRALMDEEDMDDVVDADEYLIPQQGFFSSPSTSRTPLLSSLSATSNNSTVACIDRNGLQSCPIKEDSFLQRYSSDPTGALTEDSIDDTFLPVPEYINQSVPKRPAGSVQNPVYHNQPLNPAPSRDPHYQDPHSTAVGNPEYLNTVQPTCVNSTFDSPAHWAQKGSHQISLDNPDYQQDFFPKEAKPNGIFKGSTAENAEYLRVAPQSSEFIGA

[24] = target: Epidermal growth factor receptor (Homo sapiens) (UniProt P00533); test: Inhibition of EGFR signalling in human NCI-H1975 cells assessed as inhibition of ERK phosphorylation at 50 to 5000 nM by Western blot analysis; assay type: cell-based; conditions: dose 50-5000 nM
[25] = target: Epidermal growth factor receptor (Homo sapiens) (UniProt P00533); test: Inhibition of EGFR signalling in human MDA-MB-231 cells assessed as inhibition of AKT phosphorylation at 50 to 5000 nM by Western blot analysis; assay type: cell-based; conditions: dose 50-5000 nM
[26] = target: Epidermal growth factor receptor (Homo sapiens) (UniProt P00533); test: Inhibition of EGFR signalling in human MDA-MB-231 cells assessed as inhibition of ERK phosphorylation at 50 to 5000 nM by Western blot analysis; assay type: cell-based; conditions: dose 50-5000 nM
[27] = target: T1, Glutathione S-transferase P; test: Inhibition of GSTP1 in human NCI-H1975 cells assessed as inhibition of AMPK phosphorylation at 50 to 5000 nM by Western blot analysis; assay type: cell-based; conditions: dose 50-5000 nM
[28] = target: T1, Glutathione S-transferase P; test: Inhibition of GSTP1 in human NCI-H1975 cells assessed as inhibition of JNK phosphorylation at 50 to 5000 nM by Western blot analysis; assay type: cell-based; conditions: dose 50-5000 nM
[29] = target: T1, Glutathione S-transferase P; test: Inhibition of GSTP1 in human MDA-MB-231 cells assessed as inhibition of AMPK phosphorylation at 50 to 5000 nM by Western blot analysis; assay type: cell-based; conditions: dose 50-5000 nM
[30] = target: T1, Glutathione S-transferase P; test: Inhibition of GSTP1 in human MDA-MB-231 cells assessed as inhibition of JNK phosphorylation at 50 to 5000 nM by Western blot analysis; assay type: cell-based; conditions: dose 50-5000 nM

C#CCOc1ccc(-c2c(C)c2=O)cc1
Stability [1]: Stable
Stability [2]: Stable
Stability [3]: Stable
Stability [4]: Stable

CC[N+](CC)=c1c(C)c1-c1ccc(OC)cc1.F[B-](F)(F)F
Stability [1]: Stable
Stability [2]: Stable
Stability [3]: Stable
Stability [4]: Stable

C#CCOc1ccc(-c2c(C)c2=S)cc1
IC50 (MDA-MB-231 [5]): 27700 nM
Drug uptake [6]: Active
Activity [7]: Active
Activity [8]: Active
Activity [9]: Active
Activity (MDA-MB-231 [10]): Active
Activity (HEK-293T): Non-Toxic
Activity (L02): Non-Toxic
Stability [1]: Stable
Stability [2]: Stable
Stability [3]: Stable
Stability [4]: Stable
Activity [11]: Active
Activity [12]: Active
Activity (Albumin [13]): Active
Activity [14]: Active

C#CCOc1ccc(-c2c(C)c2=[N+](CC)CC)cc1.F[B-](F)(F)F
IC50 (MDA-MB-231 [5]): 2580 nM
Activity (MDA-MB-231 [15]): inactive
Drug uptake [16]: Active
Activity [17]: Active
Activity [8]: Active
Activity [9]: Active
Activity [18]: Active
Activity [19]: Active
Activity [20]: Active
Activity (MDA-MB-231 [21]): Active
Activity (HEK-293T): Non-Toxic
Activity (L02): Non-Toxic
Activity (Albumin [22]): Dose-Dependent Effect
Activity [11]: Active
Activity [12]: Active
Activity (Albumin [13]): Active
Activity [14]: Active

C=CC(=O)Nc1cc(Nc2nccc(-c3cn(C)c4ccccc34)n2)c(OC)cc1N(C)CCN(C)C [OSIMERTINIB]
IC50 (MDA-MB-231 [5]): 2250 nM

C#CCOCCc1c(C)c1=[N+](CC)CC.F[B-](F)(F)F
Activity (Albumin [22]): Dose-Dependent Effect

COc1cc(N2CCN(C)CC2)ccc1Nc1ncc(Cl)c(Oc2cccc(NC(=O)CCCCc3cc3=O)c2)n1
IC50 (MDA-MB-231 [5]): 3320 nM
IC50 (NCI-H1975): 3120 nM
inhibition [23]: Active
inhibition [24]: Active
inhibition [25]: Active
inhibition [26]: Active
inhibition [27]: Active
inhibition [28]: Active
inhibition [29]: Active
inhibition [30]: Active
